Laboratory results published in ChEMBL document CHEMBL1147763, “Synthesis and biological activities of nucleoside-estradiol conjugates” (Bioorg Med Chem Lett, 2006).

Tests used:
MCF7 = assay: Cytotoxicity against human breast cancer MCF7 cell line expressing ER; type: functional, cell-based
MDA-MB-231 = assay: Cytotoxicity against human breast cancer MDA-MB-231 cell line lacking ER; type: functional, cell-based
[1] = Cell survival against human breast cancer MCF7 cell line after 72h at 10 uM; type: ADME, cell-based; settings: MCF7 breast cancer cells, read-out: Activity
[2] = Cell survival against human breast cancer MDA-MB-231 cell line after 72h at 10 uM; type: ADME, cell-based; settings: MDA-MB-231 breast cancer cells, read-out: Activity

In the case of Cn1cc(C#C[C@]2(O)CC[C@H]3[C@@H]4CCc5cc(O)ccc5[C@H]4CC[C@@]32C)c(=O)n(C)c1=O, the Activity (MCF7) is reported as “Not toxic” and the Activity (MDA-MB-231) is reported as “Not toxic”.

For C[C@]12CC[C@@H]3c4ccc(O)cc4CC[C@H]3[C@@H]1CC[C@@H]2O, the Activity (MCF7) was “Not toxic” and the Activity (MDA-MB-231) was “Not toxic”.

With C[C@]12CC[C@@H]3c4ccc(O)cc4CC[C@H]3[C@@H]1CC[C@@]2(O)C#CCCCCC#Cc1cn([C@@H]2O[C@H](CO)[C@@H](O)[C@H]2O)c(=O)[nH]c1=O the Activity (MCF7) was “Not toxic” and the Activity (MDA-MB-231) was “Not toxic”.

In the case of C[C@]12CC[C@@H]3c4ccc(O)cc4CC[C@H]3[C@@H]1CC[C@@]2(O)C#CCCCCC#Cc1cnc(O)nc1O, the Activity (MCF7) is reported as “Not toxic” and the Activity (MDA-MB-231) is reported as “Not toxic”.

Work on O=c1[nH]cc(F)c(=O)[nH]1 [FLUOROURACIL] yielded a viability at 72 h, 10 µM [1] of 40% and a viability at 72 h, 10 µM [2] of 67%.

For C[C@]12CC[C@@H]3c4ccc(O)cc4CC[C@H]3[C@@H]1CC[C@@]2(O)C#CCCCCC#Cc1cn([C@H]2C[C@H](O)[C@@H](CO)O2)c(=O)[nH]c1=O, the Activity (MCF7) was “Not toxic” and the Activity (MDA-MB-231) was “Not toxic”.

With CC/C(=C(\c1ccccc1)c1ccc(OCCN(C)C)cc1)c1ccccc1 [TAMOXIFEN] the viability at 72 h, 10 µM [1] was 72%.

In the case of C[C@]12CC[C@@H]3c4ccc(O)cc4CC[C@H]3[C@@H]1CC[C@@]2(O)C#Cc1nc2c(N)ncnc2n1[C@H]1O[C@@H](CO)[C@H](O)[C@@H]1O, the Activity (MCF7) is reported as “Not toxic” and the Activity (MDA-MB-231) is reported as “Not toxic”.

For C[C@]12CC[C@@H]3c4ccc(O)cc4CC[C@H]3[C@@H]1CC[C@@]2(O)C#Cc1cn([C@H]2C[C@H](O)[C@@H](CO)O2)c(=O)[nH]c1=O, the Activity (MCF7) was “Not toxic” and the Activity (MDA-MB-231) was “Not toxic”.

For Cn1cc(C#CCCCCC#C[C@]2(O)CC[C@H]3[C@@H]4CCc5cc(O)ccc5[C@H]4CC[C@@]32C)c(=O)n(C)c1=O, the Activity (MCF7) was “Not toxic” and the Activity (MDA-MB-231) was “Not toxic”.

For C[C@]12CC[C@@H]3c4ccc(O)cc4CC[C@H]3[C@@H]1CC[C@@]2(O)C#Cc1cnc(O)nc1O, the Activity (MCF7) was “Not toxic” and the Activity (MDA-MB-231) was “Not toxic”.
